Earlier results as cited in patent publication US6943197B2, “Topical administration of pharmacologically active bases in the treatment of inflammatory dermatoses” (priority 2002, dated 2005).
Like-named read-outs stand apart in the source and are kept apart here.

Columns and labels:
[1] = for pH of Aqueous Solution (alkalinity in words): no concentration, result in words
[2] = forms Ca(OH)2

SMILES	pH of Aqueous Solution ([1]; concentration not given)	other results
N.N.O=P(O)(O)O [Ammonium phosphate, dibasic]	˜8	–
[O]=[Ca] [Calcium oxide]	–	Solubility in water [2]: Soluble in water, Form
[O]=[Mg] [Magnesium oxide]	–	pH of Aqueous Solution ([1]; saturated solution in water): 10.3
O=C([O-])CC(O)(CC(=O)[O-])C(=O)[O-].[K+].[K+].[K+] [Potassium citrate]	˜8.5	–
O=P([O-])([O-])O.[K+].[K+] [Potassium phosphate, dibasic]	–	pH of Aqueous Solution (alkalinity in words) [1]: Aqueous solution is slightly
CC(=O)[O-].[Na+] [Sodium acetate, anhydrous]	–	pH of Aqueous Solution ([1]; 0.1 N): ˜8.9 (0.1 N)
CC(=O)[O-].O.O.O.[Na+] [Sodium acetate, tribydrate]	–	pH of Aqueous Solution ([1]; 0.1 N): 8.9 (0.1 N)
O=C([O-])[O-].[Na+].[Na+] [Sodium carbonate anhydrous]	˜11.6	–
O=B[O-].[Na+] [Sodium metaborate]	–	pH of Aqueous Solution (alkalinity in words) [1]: Strongly alkaline
O.O.O=P([O-])([O-])O.[Na+].[Na+] [Sodium phosphate, dibasic, dihydrate]	˜9.5	–
O.O.O.O.O.O.O.O.O.O.O.O.O=P([O-])([O-])O.[Na+].[Na+] [Sodium phosphate, dibasic, dodecahydrate]	˜9.5	–
O.O.O.O.O.O.O.O=P([O-])([O-])O.[Na+].[Na+] [Sodium phosphate, dibasic, heptahydrate]	˜9.5	–
O=P([O-])([O-])O.[Na+].[Na+] [Sodium phosphate, dibasic]	˜9.5	–
O.O.O.O.O.O.O.O.O.O.O.O.O=P([O-])([O-])[O-].[Na+].[Na+].[Na+] [Sodium phosphate, tribasic dodecahydrate]	–	pH of Aqueous Solution ([1]; 1.0% (1%)): 11.9 (1.0%)
